{"source": "patent US11073509B2", "about": "“Assays and methods for determining the responsiveness of an individual subject to a therapeutic agent” (Celcuity Inc., priority 2013, dated 2021)", "key": {"[1]": {"system": "patient breast cancer cell sample", "assay": "CELx Pathway Shutdown single drug test (Example 4), impedance biosensor CReMS", "format": "cell-based, human", "conditions": "one patient breast cancer cell sample expected to be a responder", "method": "The physiologic change of the cells and drugs tested was measured with an impedance biosensor CReMS and the summary output from the CReMS is recorded in FIG. 4.\nCells: Cells from Patients B1, B2, B3, B4, B5, B6, B7, C1, C2, L1, and L2 were utilized and handled in the same manner as described in Example 1.\nIn those experiments involving a combination of drugs, the procedures described in Example 3 were utilized. The list of patient cells and the drug tested with the cells is characterized in FIG. 4."}, "[2]": {"system": "Patient C2 colon cancer cells", "assay": "CELx Combination test, impedance biosensor CReMS", "format": "cell-based, human", "conditions": "Patient C2 cells (printed Patient 2), single drug", "description": "Cells: Colon cancer cells from Patients C1 and C2 were utilized and handled in the same manner as described in Example 1.\nProcedure: Between 6,000-12,000 cells in each well were seeded into the impedance microplate containing 120 uL settling media with serum. The solution was replaced with media containing no serum to synchronize the cells with respect to physiologic state. […] The CReMS recording of physiologic change was maintained continuously from when the cells were first seeded on the microplate through complete cellular response, which was between 48-72 hours. The test was performed at 37° C., 5% CO2 and at 75% relative humidity."}, "[3]": {"system": "Patient B1 cells (HER2 overexpressing breast cancer)", "assay": "CELx Pathway Shutdown test, impedance biosensor CReMS, EGF stimulation", "format": "cell-based, human", "from_the_text": "(§1) CReM and microplate: A 4″×6″, 96-well impedance microplate was placed into a Roche Applied Science (Indianapolis, Ind.) xCELLigence SP impedance biosensor designed to maintain constant voltage while measuring simultaneously the impedance of every well. The change in impedance for a particular well is proportional to the number of cells and type of attachment the cells have with the impedance microplate. Changes in impedance indicate a response to perturbation of these small cell populations.\n(§2) Cells: Cells from Patient B1 and B4 were utilized. […] Prior to addition to the impedance microplate, the cells were removed from their growth container with versene, counted, and re-suspended in media without serum or other growth factors.\n(§3) Buffers and reagents: Standard media, serum, antibiotics (e.g. penicillin, streptomycin), and other buffers were purchased and used as delivered from ATCC (Manassas, Va., USA) or Life Technologies (Grand Island, N.Y.). Additional growth factor (mature human EGF ca6KDa) was purchased from R&D Systems (Minneapolis, Minn.) and prepared in buffered cell media without growth factors or serum.\n(§4) Procedure: Between 6,000-12,000 cells in each well were seeded onto the impedance microplate containing 120 uL standard media with serum. The solution was replaced with media containing no serum to synchronize the cells with respect to physiologic state and pathway stimulation. Twenty microliters of drugs were added to the no-serum media two hours in advance of pathway stimulation."}, "[4]": {"system": "Patient B4 cells (HER2 overexpressing breast cancer)", "assay": "CELx Pathway Shutdown test, impedance biosensor CReMS, EGF stimulation", "format": "cell-based, human", "from_the_text": "as §1, §2, §3, §4"}, "[5]": {"conditions": "cited from earlier work"}, "[6]": {"system": "Patient B1 breast cancer cells", "assay": "CELx Anti-Proliferative test, impedance biosensor CReMS", "format": "cell-based, human", "method": "(§5) The physiologic change of the B1 and B2 cells during the test was measured with an impedance biosensor CReMS and the output from the CReMS is recorded in FIGS. 2A and 2B. The comparison of the CELx test results and the third party clinical reference is recorded in FIG. 2C.\n(§6) CReMS, microplate, reagents, and buffers: The CReMS, microplate, reagents, and buffers used in Example 1 are the same as those employed in Example 2, except for the therapeutic agent tested. […] Paclitaxel was purchased from Selleck Chemicals (TX, USA).\n(§7) Cells: Breast Cancer cells from Patients B1 and B2 were utilized and handled in the same manner as described in Example 1.\n(§8) Procedure: Between 6,000-12,000 cells in each well were seeded onto the impedance microplate containing 120 uL settling media with serum. […] The CReMS recording of physiologic change was maintained continuously from when the cells were first seeded on the microplate through complete cellular response, which was between 48-72 hours. The test was performed at 37° C., 5% CO2 and at 75% relative humidity."}, "[7]": {"system": "Patient B2 breast cancer cells", "assay": "CELx Anti-Proliferative test, impedance biosensor CReMS", "format": "cell-based, human", "method": "as §5, §6, §7, §8"}}, "note": "Read-outs that look alike come from different tables or passages of the source."}
{"smiles": "COc1cc2ncnc(Nc3ccc(F)c(Cl)c3)c2cc1OCCCN1CCOCC1", "note": "[gefitinib]", "values": [{"measurement": "response in the CReMS testing", "setting": "[1]", "value": "did not show a response"}]}
{"smiles": "CCc1c2c(nc3ccc(OC(=O)N4CCC(N5CCCCC5)CC4)cc13)-c1cc3c(c(=O)n1C2)COC(=O)[C@]3(O)CC", "note": "[irinotecan, Irinotecan]", "values": [{"measurement": "responsiveness to the individual drug", "setting": "[2]", "value": "responsive"}]}
{"smiles": "CS(=O)(=O)CCNCc1ccc(-c2ccc3ncnc(Nc4ccc(OCc5cccc(F)c5)c(Cl)c4)c3c2)o1", "note": "[lapatinib, Lapatinib]", "values": [{"measurement": "CELx test prediction of patient response", "setting": "[3]; Patient B1", "value": "will respond"}, {"measurement": "change (decrease) of cell index of test cells after drug", "setting": "[3]; Patient B1 cells, pathway stimulated with receptor ligand (EGF), vs stimulated cells without drug", "value": "over 50%"}, {"measurement": "CELx test prediction of patient response", "setting": "[4]", "value": "would respond"}, {"measurement": "patient responsiveness recorded by clinical reference standard", "setting": "[5]; Patient B1", "value": "responsive"}, {"measurement": "patient responsiveness recorded by clinical reference standard", "setting": "[5]; Patient B4", "value": "responsive"}]}
{"smiles": "CC(=O)O[C@H]1C(=O)[C@@]2(C)[C@H]([C@H](OC(=O)c3ccccc3)[C@]3(O)C[C@H](OC(=O)[C@H](O)[C@@H](NC(=O)c4ccccc4)c4ccccc4)C(C)=C1C3(C)C)[C@]1(OC(C)=O)CO[C@@H]1C[C@@H]2O", "note": "[paclitaxel, Paclitaxel]", "values": [{"measurement": "CELx test prediction of patient response", "setting": "[6]; Patient B1", "value": "will respond"}, {"measurement": "responsiveness of test cells (decrease in CReM output compared to control cells)", "setting": "[6]; Patient B1 cells, continuous recording 48-72 hours", "value": "immediate and continuous responsiveness"}, {"measurement": "CELx test prediction of patient response", "setting": "[7]; Patient B2", "value": "will respond"}, {"measurement": "time after which the CReM output reverses (test cells begin proliferating, no longer responsive)", "setting": "[7]; Patient B2 cells", "value": "roughly 24 hours"}, {"measurement": "responsiveness of test cells (decrease in CReM output compared to control cells)", "setting": "[7]; Patient B2 cells, continuous recording 48-72 hours", "value": "initial responsiveness"}]}
